Data reported in US20030158251A1, “Methods, pharmaceutical compositions and articles of manufacture for treating disorders associated with abnormal cell proliferation and apoptosis” (priority 2002, published 2003).
Where a SMILES comes first, the peptide text is derived from it. The star is where a group is joined. Cbz = O=C(OCc1ccccc1)*

Assays:
thymocytes = assay: Dexamethasone induced apoptosis in thymocytes; format: cell-based, mouse; conditions: for apoptotic cells: dexamethasone treated thymocytes, from 42±3% without inhibitor
Excerpt: Accumulation of p53 in γ-irradiated or doxorubicin treated 7-M12 myeloid leukemic cells (28) induces expression of mdm2 and waf-1.

[1] = test system: M1-t-p53 myeloid leukemic cells; assay: cells
Procedure: Cell viability was determined 23 h after culture at 32° C.
(§1) The cell lines used were: HCT116 human colon carcinoma cells, HCT116 HA-NQO1 over-expressing cells (45), p53 null HCT116 cells (Bunz, F., Dutiaux, A., Lengauer, C., Waldman, T., Zhou, S., Brown, J. P., Sedivy, J. M., Kinzler, K. W. & Vogelstein, B. (1998) Science 282, 1497-1501.), COS 1 monkey kidney cells, normal thymocytes obtained from 2.5 month old Balb/C mice and M1-t-p53 mouse myeloid leukemic cells that express a temperature-sensitive mutant p53 [Val-135] protein (Yonish-Rouach, E., Resnitzky, D., Lotem, J., Sachs, L., Kimchi, A. & Oren, M. (1991) Nature 352, 345-347).
(§2) The p53 in M1-t-p53 cells behaves like a tumor-suppressing wild-type p53 at 32° C. and like a mutant p53 at 37° C. (24). HCT116 and COS 1 cells were grown in Dulbecco's modified Eagle's medium (DMEM) supplemented with 10% fetal bovine serum (FBS), […] penicillin, and 100 µg/ml streptomycin and cultured at 37° C. in a humidified incubator with 5.6% C02. Normal thymocytes and M1-t-p53 cells were grown in DMEM supplemented with 10% heat inactivated (56° C., 30 min) horse serum and cultured at 37° C. in an incubator with 10% […].
(§3) Apoptosis in normal thymocytes was induced by gamma irradiation 4 Gy (Co^60 source 0.63 Gy/min) and in M1-t-p53 cells by culture at 32° C. The percentage of apoptotic thymocytes was determined on May-Grünwald-Giemsa-stained cytospin preparations by counting 400 cells 5 hrs post gamma-irradiation. Apoptotic cells were scored by their smaller size, condensed chromatin, and fragmented nuclei compared with non-apoptotic cells. Analysis of DNA fragmentation during apoptosis in thymocytes was performed by DNA agarose gel electophoresis as described (27). Apoptotic M1-t-p53 cells undergo secondary changes including uptake of trypan-blue (28). The percent of viable cells (non apoptotic and not stained with trypan-blue) was determined by counting 400 cells in a hemocytometer after 23 hrs at 32° C.
(§4) These cells are viable and proliferate at 37° C. when the p53 behaves like a mutant form, but undergo apoptosis at 32° C. when the p53 behaves like wild-type (3).

p53 [2] = assay: Proteasome inhibitor block of dicoumarol-induced p53 elimination in HCT116 cells; format: cell-based, human; conditions: HCT116, 4 hrs with dicoumarol; 100 micromolar MG 132 or 40 micromolar lactacystin
Procedure: FIGS. 2a-b illustrate that proteasomal degradation is responsible for the dicoumarol-induced p53 decrease in cells. […] Immunoblots were carried out as in FIG. 1.
Cell extracts were prepared by lysis of PBS-washed cells in RIPA lysis buffer [150 mM NaCl, 1% NP-40 (vol/vol), 0.5% AB-deoxycholate (DOC vol/vol), 0.1% SDS (vol/vol), 50 mM Tris-Hcl pH 8, 1 mM dithiotireitol (DTT) and 1 micogram/ml each of leupeptin, aprotinin, pepstatin (Sigma cocktail)]. The insoluble pellet was discarded and protein concentration was determined using Bradford reagent (BioRad). Equal amounts of protein were mixed with Laemmli sample buffer (4% SDS, 20% glycerol, 10% 2-mercaptoeftanol and 0.125M Tris-Hcl), heated at 95° C. for 5 min and loaded on an 8% polyacrylamide-SDS gel. Following electophoresis, proteins were transferred to cellulose nitrate 0.45 micrometer membranes (Schleicher & Schuell, Dassel, Germany). Loading equivalence and transfer efficiency were monitored by Ponceau S staining and the membranes were then incubated with appropriate antibodies to proteins of interest followed by horse-radish peroxidase conjugated anti-IgG antibodies. […]
It is well documented that p53 accumulation is determined by the rate of its proteasomal degradation (reviewed in refs. 1,2).

p53 [3] = assay: Immunoblot of p53 level in M1-t-p53 cells; format: cell-based, mouse
Procedure: Immunoblot analysis was carried out using Pab 240 monoclonal anti p53 antibody. The blots were then stripped and re-probed with anti I-kappa-B and anti beta-tubulin antibody.
Immunoblot analysis was carried out using Pab 240 monoclonal anti p53 antibody and hamster anti mouse Bcl-2. FIG. 11a is an immunoblot of cell extracts from M1-t-p53 myeloid leukemic cells cultured for 6h at 32° C. or 37° C. without or with different concentrations of radicicol. Antibodies are indicated at left. FIG. 11b is an immunoblot of cell extracts from cells cultured at 32° C. for 6 or 2 h without (−) or with (+) 1 μM radicicol. Cells were also preincubated for 4 h at 32° C. and then cultured with 1 μM radicicol or 1 μM geldanamycin (geldan.) for 2 h (2 h*).
as §1, §2
(§5) Cell extracts were prepared by lysis of PBS-washed cells in RIPA lysis buffer [150 mM NaCl, 1% NP-40 (vol/vol), 0.5% AB-deoxycholate (DOC vol/vol), 0.1% SDS (vol/vol), 50 mM Tris-Hcl pH 8, 1 mM dithiotireitol (DTT) and 1 micogram/ml each of leupeptin, aprotinin, pepstatin (Sigma cocktail)]. The insoluble pellet was discarded and protein concentration was determined using Bradford reagent (BioRad). Equal amounts of protein were mixed with Laemmli sample buffer (4% SDS, 20% glycerol, 10% 2-mercaptoeftanol and 0.125M Tris-Hcl), heated at 95° C. for 5 min and loaded on an 8% polyacrylamide-SDS gel. Following electophoresis, proteins were transferred to cellulose nitrate 0.45 micrometer membranes (Schleicher & Schuell, Dassel, Germany). Loading equivalence and transfer efficiency were monitored by Ponceau S staining and the membranes were then incubated with appropriate antibodies to proteins of interest followed by horse-radish peroxidase conjugated anti-IgG antibodies. Signals were developed using Super Signal (Pierce Poxkford, USA) at 20° C. for 5 min and the membranes were then exposed to X-ray film (Fuji Tokyo, Japan) for an appropriate time and developed. Membranes were stripped using 50 mM citric acid before using a different primary antibody. The antibodies used were; Monoclonal anti human p53 (Pab 1801) (26), monoclonal anti mouse and human p53 (Pab240), monoclonal anti I-kappa-B (Santa Cruz Biotechnology, Santa Cruz, Calif., USA), monoclonal anti beta-tubulin and anti HA (Sigma Chemical, St. Louis, Mo.).
as §4
Because interleukin 6 (IL-6) and the calcium mobilizing compound thapsigargin (TG) are known to be efficient anti-apoptotic agents in M1-t-p53 cells (3, 31), the effect of these compounds on p53 stability was also investigated. […] (FIG. 6a).

normal thymocytes = assay: Apoptosis in gamma irradiated normal thymocytes; format: cell-based, mouse
Excerpt: as §1, §3

p53 [4] = assay: Immunoblot of p53 level in gamma irradiated normal thymocytes; format: cell-based, mouse; conditions: for wild-type p53 accumulation: γ-irradiated normal thymocytes, 2 h, 200 μM dicoumarol, 5 μM radicicol or 5 μM geldanamycin
Procedure: Cell extracts were prepared after 2 h and apoptosis was determined after 5 h.

p53 [5] = assay: Dicoumarol-induced p53 degradation in transfected p53 null HCT116 cells; format: cell-based, human; conditions: 5 h
Procedure: Antibodies used to probe and reprobe the blots are indicated at the left. Stripping and reprobing was as for FIGS. 8 and 9.
Transfection: Cells were seeded at 60% confluence in 6-well plates 16 h before transfection with the desired plasmids. Transfections were carried out by the calcium phosphate method followed by a 10% glycerol shock for 30 seconds, 7 h post transfection. The exact amount of plasmid used in each experiment is indicated in the corresponding figure legend. Whenever needed an empty vector was used to maintain a constant amount of 5 μg total DNA in each transfection mix. Cell extracts were generally prepared 24 h after transfection.
as §5, with “The antibodies used were; Monoclonal anti human p53 (Pab 1801) (26), monoclonal anti mouse and human p53 (Pab240), monoclonal anti I-kappa-B (Santa Cruz Biotechnology, Santa Cruz, Calif., USA), monoclonal anti beta-tubulin and anti HA (Sigma Chemical, St. Louis, Mo.).” left out

p53 [6] = assay: Immunoblot of p53 accumulation in 7-M12 myeloid leukemic cells; format: cell-based; conditions: 7-M12 cells; for accumulation of p53 following γ-irradiation or doxorubicin treatment: 2 h, 100 μM dicoumarol or 5 μM radicicol
Procedure: Immunoblot analysis was carried out using PAb 240 monoclonal anti p53 antibody and rabbit anti IκB FIG. 13a is an immunoblot of extracts from 7-M12 cells which were either not treated (none), γ-irradiated at 0.4 Gy or treated with 2.1 μM doxorubicin (Dox.). […] Cell extracts were prepared after 2 h and apoptosis was determined after 5 h.

p53 [7] = assay: Immunoblot of p53 level in HCT116 cells treated with dicoumarol; format: cell-based, human; conditions: for p53 level: HCT116 cells, 400 micromolar dicoumarol; for accumulation of p53 upon γ-irradiation: HCT116 γ-irradiated at 6 Gy, 4 hrs
Procedure: Protein levels of each lane probed were calibrated by probing with monoclonal anti beta-tubulin antibody. Dic—Dicoumarol.
as §5
Blots were stripped and re-probed with monoclonal anti beta-tubulin antibody as a control for equal protein loading in each lane.
Since it is known that irradiation cause accumulation of p53 within cells, an additional event was conducted on irradiated cells. […] As expected, p53 accumulated upon γ-irradiation (compare FIG. 1b lanes 1 and 2).

p53 [8] = assay: Immunoblot of p53 level in COS 1 cells expressing SV40 large T antigen; format: cell-based, monkey; conditions: COS 1 cells gamma irradiated at 6 Gy, up to 400 micromolar, 4 hrs
Procedure: Cell extracts were prepared by lysis of PBS-washed cells in RIPA lysis buffer [150 mM NaCl, 1% NP-40 (vol/vol), 0.5% AB-deoxycholate (DOC vol/vol), 0.1% SDS (vol/vol), 50 mM Tris-Hcl pH 8, 1 mM dithiotireitol (DTT) and 1 micogram/ml each of leupeptin, aprotinin, pepstatin (Sigma cocktail)]. The insoluble pellet was discarded and protein concentration was determined using Bradford reagent (BioRad). Equal amounts of protein were mixed with Laemmli sample buffer (4% SDS, 20% glycerol, 10% 2-mercaptoeftanol and 0.125M Tris-Hcl), heated at 95° C. for 5 min and loaded on an 8% polyacrylamide-SDS gel. Following electophoresis, proteins were transferred to cellulose nitrate 0.45 micrometer membranes (Schleicher & Schuell, Dassel, Germany). Loading equivalence and transfer efficiency were monitored by Ponceau S staining and the membranes were then incubated with appropriate antibodies to proteins of interest followed by horse-radish peroxidase conjugated anti-IgG antibodies. Signals were developed using Super Signal (Pierce Poxkford, USA) at 20° C. for 5 min and the membranes were then exposed to X-ray film (Fuji Tokyo, Japan) for an appropriate time and developed. Membranes were stripped using 50 mM citric acid before using a different primary antibody. […]

[9] = Mus musculus, 23 h, read-out: cell viability
[10] = 32° C., 6 hrs, 10 nanomolar TG or 50 ng/ml IL-6

Molecule: COC1=C2C[C@@H](C)C[C@H](OC)[C@H](O)[C@@H](C)/C=C(\C)[C@H](OC(N)=O)[C@@H](OC)/C=C\C=C(/C)C(=O)NC(=CC1=O)C2=O [geldanamycin]
- apoptotic cells (thymocytes): 5±2%
- viability at 0.1 µM [1, 9]: 90 ± 4%

Molecule: CC(=O)N[C@@H](CSC(=O)[C@]1([C@@H](O)C(C)C)NC(=O)[C@H](C)[C@@H]1O)C(=O)O [lactacystin]
- block of dicoumarol-induced p53 elimination (p53 [2]): completely blocked

Molecule: C/C=C(/C)C(=O)O[C@H]1C(C)=C2[C@H]([C@@H]1OC(=O)CCCCCCC)[C@@](C)(OC(C)=O)C[C@H](OC(=O)CCC)[C@@]1(O)[C@H]2OC(=O)[C@@]1(C)O [TG, thapsigargin]
- p53 level (p53 [3]; [10]): did not cause a reduction in p53 level

Molecule: CC(C)C[C@@H](C=O)NC(=O)[C@H](CC(C)C)NC(=O)[C@H](CC(C)C)NC(=O)OCc1ccccc1 [MG132] (Cbz-Leu-Leu-Leu-aldehyde)
- block of dicoumarol-induced p53 elimination (p53 [2]): completely blocked

Molecule: O=c1oc2ccccc2c(O)c1Cc1c(O)c2ccccc2oc1=O [dicoumarol, 13-3′-methylene bis (4-hydroxycoumarin)]
- induction of apoptosis (morphology and DNA fragmentation) (normal thymocytes; 4 Gy gamma irradiated thymocytes, 100 and 200 micromolar, 5 hrs, dose dependent): inhibited induction of apoptosis
- inhibition of apoptosis (normal thymocytes; 4 Gy gamma irradiated thymocytes, 200 micromolar): Complete inhibition of apoptosis
- induction of apoptosis (normal thymocytes; γ-irradiated normal thymocytes, 5 h, 200 μM dicoumarol or 5 μM hsp90 inhibitor): completely inhibited
- level of p53 (p53 [4]; 4 Gy gamma irradiated thymocytes, 100 and 200 micromolar, 5 hrs): decrease in the level of p53
- wild-type p53 accumulation (p53 [4]): completely inhibited
- dicoumarol induced p53 degradation (p53 [5]; p53 null HCT116 co-transfected with p53 and LT, 300 μM): resistant to dicoumarol induced p53 degradation
- dicoumarol induced p53 degradation (p53 [5]; p53 null HCT116 transfected only with p53, 300 μM): sensitive to dicoumarol induced p53 degradation
- levels of Mdm-2 and LT (p53 [5]; transfected p53 null HCT116, 300 μM): not affected
- cell survival compared to cells without dicoumarol ([1]; M1-t-p53 cells, 32° C., 23 hrs, 75 or 100 micromolar): increase in cell survival
- viability at 75 µM ([1]; Mus musculus, read-out: cell viability): 52 ± 4%
- accumulation of p53 following γ-irradiation or doxorubicin treatment (p53 [6]): inhibited
- level of beta-tubulin (p53 [7]; HCT116, same conditions as the p53 blots (specificity control)): unaffected
- p53 level (p53 [7]; 90 min): significant reduction in p53 level
- p53 level (p53 [7]; 180 min): almost complete elimination of p53
- accumulation of p53 upon γ-irradiation (p53 [7]; 200 micromolar): reduced
- accumulation of p53 upon γ-irradiation (p53 [7]; 400 micromolar): further reduced
- p53 level (p53 [8]): not reduced
- level of I-kappa-B (p53 [3]; 32° C., 6 hrs, 100 micromolar): did not affect
- p53 level (p53 [3]; 32° C., 16 hrs, 75 or 100 micromolar dicoumarol): reduced
- degradation of I-kappa-B or beta-tubulin (p53 [3]; 37° C., 6 hrs, 100 micromolar): not of I-kappa-B or beta-tubulin
- degradation of mutant p53 (p53 [3]; 37° C., 6 hrs, 100 micromolar): induce degradation of p53

Molecule: C[C@@H]1C[C@H]2O[C@@H]2/C=C\C=C\C(=O)Cc2c(Cl)c(O)cc(O)c2C(=O)O1 [radicicol]
- wild-type p53 accumulation (p53 [4]): only a weak inhibition
- apoptotic cells (thymocytes): 5±2%
- suppression of dexamethasone induced apoptosis (thymocytes; thymocytes): strongly suppressed
- suppression of wild-type p53 induced apoptosis ([1]; M1-t-p53 cells cultured at 32° C., 23 h): strongly suppressed
- viability at 0.1 µM [1, 9]: 90 ± 4%
- inhibition of p53 accumulation relative to dicoumarol (p53 [6]; 5 μM radicicol versus 100 μM dicoumarol): stronger effect
- accumulation of p53 following γ-irradiation or doxorubicin treatment (p53 [6]): inhibited
- p53 level (p53 [3]; 32° C., 2 h, 1 μM, also after 4 h preincubation at 32° C.): decrease in p53 level
- level of p53 in its wild-type form (p53 [3]; 32° C., 6 h incubation): strong decrease in the level of p53
- level of p53 in its mutant form (p53 [3]; 37° C., 6 h incubation): strong decrease in the level of p53
- level of Bcl-2 (p53 [3]; 6 h incubation, same conditions): no change

B1: IL6: interleukin 6, anti-apoptotic agent in M1-t-p53 cells (protein, UniProt P08505 25-211, looked up)
Interleukin-6: FPTSQVRRGDFTEDTTPNRPVYTTSQVGGLITHVLWEIVEMRKELCNGNSDCMNNDDALAENNLKLPEIQRNDGCYQTGYNQEICLLKISSGLLEYHSYLEYMKNNLKDNKKDKARVLQRDTETLIHIFNQEVKDLHKIVLPTPISNALLTDKLESQKEWLRTKTIQFILKSLEEFLKVTLRSTRQT
- p53 level (p53 [3]; [10]): did not cause a reduction in p53 level
